Experimental data: patent US20120302614A1, “METHOD FOR IMPROVING CEREBRAL CIRCULATION OR TREATING A CEREBRAL BLOOD FLOW DISORDER” (OSAKA UNIVERSITY, priority 2007, published 2012)

Columns and labels:
[1] = Blood pressure by tail-cuff method, Test Example 1; assay type: in vivo, ddY mouse
Protocol: The therapeutic effect of olmesartan medoxomil in Aβ injection model and the dose dependency thereof were examined according to the following experimental schedule. [Experimental Schedule]: Prior to the experiment, 8-week old male ddY mice were administered olmesartan medoxomil (0.5 mg/kg/day, 1 mg/kg/day, 3 mg/kg/day or 6 mg/kg/day) or distilled water orally for four weeks (day −28 to −1). Then, Aβ 1-40 was administered to the mice intracerebroventricularly (day 0). (Although Aβ 1-40 was administered into one of the lateral ventricles in WO 2006/059777, Aβ 1-40 was administered in Test Example 1 to both lateral ventricles with an interval of one day between two administrations. Except for this point, Aβ 1-40 administration was performed in the same manner as in WO 2006/059777.) From one week thereafter, a behavioral test to evaluate cognitive function (Morris water maze test; Morris R et al., J Neuroscience Methods 1984, 11, 47-60) was performed (day 7 to 12). As a negative control, mice which had received oral administration of distilled water for four weeks were administered Aβ 40-1 intracerebroventricularly. The administration of olmesartan medoxomil or distilled water was continued until the end of the behavioral test. Measurements were performed as described below. • Hidden platform test: A platform is placed below the water surface of a water pool 150 cm in diameter filled with white water-colored. Mice are released into the water, and the time it takes them to reach the platform is measured. This trial is performed three times a day and for five consecutive days. As they learn, mice become able to reach the platform more quickly day by day. • Visible platform test: Mice are released into the water under such conditions that they can see the platform. The time it takes them to reach the platform is measured. • Probe test: The platform is removed, and mice are released and allowed to swim freely. […] The time they spent in that quadrant is measured. • Annnulus crossing: The number of times mice crossed the platform in the probe test is counted. […]

[2] = system: Aβ injection model (Aβ 1-40 administered intracerebroventricularly); test: Morris water maze tests in Aβ injection model, Test Example 2; assay type: in vivo, ddY mouse; settings: olmesartan medoxomil 1 mg/kg/day, hydralazine 30 mg/kg/day
Protocol: The therapeutic effect of olmesartan medoxomil in Aβ injection model and the dose dependency thereof were examined according to the following experimental schedule. [Experimental Schedule]: Prior to the experiment, 8-week old male ddY mice were administered olmesartan medoxomil (0.5 mg/kg/day, 1 mg/kg/day, 3 mg/kg/day or 6 mg/kg/day) or distilled water orally for four weeks (day −28 to −1). Then, Aβ 1-40 was administered to the mice intracerebroventricularly (day 0). (Although Aβ 1-40 was administered into one of the lateral ventricles in WO 2006/059777, Aβ 1-40 was administered in Test Example 1 to both lateral ventricles with an interval of one day between two administrations. Except for this point, Aβ 1-40 administration was performed in the same manner as in WO 2006/059777.) From one week thereafter, a behavioral test to evaluate cognitive function (Morris water maze test; Morris R et al., J Neuroscience Methods 1984, 11, 47-60) was performed (day 7 to 12). As a negative control, mice which had received oral administration of distilled water for four weeks were administered Aβ 40-1 intracerebroventricularly. The administration of olmesartan medoxomil or distilled water was continued until the end of the behavioral test. Measurements were performed as described below. • Hidden platform test: A platform is placed below the water surface of a water pool 150 cm in diameter filled with white water-colored. Mice are released into the water, and the time it takes them to reach the platform is measured. This trial is performed three times a day and for five consecutive days. As they learn, mice become able to reach the platform more quickly day by day. • Visible platform test: Mice are released into the water under such conditions that they can see the platform. The time it takes them to reach the platform is measured. • Probe test: The platform is removed, and mice are released and allowed to swim freely. Those mice with good learning/memory swim in the quadrant where the platform was located searching for the platform. The time they spent in that quadrant is measured. • Annnulus crossing: The number of times mice crossed the platform in the probe test is counted. […] The dose of olmesartan medoxomil was set at a low level of 1 mg/kg/day in view of the experimental results of Test Example 1. […] As behavioral tests to assess cognitive function, Morris water maze tests were performed as in Test Example 1 (hidden platform test, visible platform test and probe test) and, in addition, an open field test was also performed. Further, long-term retention, working memory task and swimming speed were also examined in the Morris water maze tests. Measurements were performed as described below. • Open field test: A cubic box (30×30×30 cm) is used. On each X and Y bank of the open-field area, two infrared beams are attached 2 cm above the floor at a 10 cm interval. The number of successive interceptions by the subject of the two adjoining beams on each bank is counted as locomotion score. • Long-term retention: On day 12 after the completion of the hidden platform test as a water maze test, mice are released into the water and the time it takes them to reach the platform is measured. • Working memory task: The platform is transferred and fixed at a new place. Mice are given four consecutive trials at intervals of as short as 20 seconds, and the time it takes them to reach the platform is measured. […] In order to eliminate this influence, swimming speed is measured.

Compound: CCCc1nc(C(C)(C)O)c(C(=O)OCc2oc(=O)oc2C)n1Cc1ccc(-c2ccccc2-c2nnn[nH]2)cc1 [olmesartan medoxomil, (5-methyl-2-oxo-1,3-dioxolen-4-yl)methyl 4-(1-hydroxy-1-methylethyl)-2-propyl-1-[4-[2-(tetrazol-5-yl)phenyl]phenyl]methyl-imidazole-5-carboxylate]
- blood pressure compared to the distilled water administration group ([1]; after 4-week oral administration (day −1), olmesartan medoxomil administration groups (0.5, 1, 3, 6 mg/kg/day)): significantly lowered
- blood pressure ([1]; immediately after Aβ administration (day 2) and after completion of the behavioral test (day 14)): A similar tendency was observed
- blood pressure ([1]; lowest dose 0.5 mg/kg/day oral, after 4-week administration (day −1)): significant lowering
- annulus crossings: number of platform crossings compared to Aβ 1-40 administration group ([2]; Aβ 1-40 + drug): increased
- hidden platform test: time to reach the platform ([2]; Aβ 1-40 + drug): shortened through successive sessions
- long-term retention: time to reach the platform compared to Aβ 1-40 administration group ([2]; day 17): shortened
- spatial memory impairment and learning disability evoked by Aβ 1-40 (Morris water test, summary) [2]: significantly improved
- working memory task: time to reach the platform compared to Aβ 1-40 administration group [2]: shortened
